Structures are written as SMILES. Some results are limits rather than exact numbers.

In general, Kd refers to the constant that tells how readily two partners part at equilibrium. A lower Kd goes with tighter binding.

Experiment [1] deals with Interferon-induced, double-stranded RNA-activated protein kinase (Homo sapiens, UniProt P19525).
The target of experiment [2] is Tyrosine-protein kinase CSK (Homo sapiens, UniProt P41240).
Experiment [3] deals with Serine/threonine-protein kinase 33 (Homo sapiens, UniProt Q9BYT3).
The target in experiment [4] is Phosphorylase b kinase gamma catalytic chain, skeletal muscle/heart isoform (Homo sapiens, UniProt Q16816).
Experiment [5] deals with Receptor-type tyrosine-protein kinase FLT3 (Homo sapiens, UniProt P36888, D835H).
Experiment [6] has as its target Serine/threonine-protein kinase MRCK gamma (Homo sapiens, UniProt Q6DT37).
Experiment [7] deals with 5'-AMP-activated protein kinase catalytic subunit alpha-1 (Homo sapiens, UniProt Q13131).
For experiment [8], the target named is Cyclin-dependent kinase 9 (Homo sapiens, UniProt P50750).
In experiment [9] the target is T1, Discoidin domain-containing receptor 2 (Homo sapiens, UniProt Q16832).
T1 sequence (Q16832 whole entry): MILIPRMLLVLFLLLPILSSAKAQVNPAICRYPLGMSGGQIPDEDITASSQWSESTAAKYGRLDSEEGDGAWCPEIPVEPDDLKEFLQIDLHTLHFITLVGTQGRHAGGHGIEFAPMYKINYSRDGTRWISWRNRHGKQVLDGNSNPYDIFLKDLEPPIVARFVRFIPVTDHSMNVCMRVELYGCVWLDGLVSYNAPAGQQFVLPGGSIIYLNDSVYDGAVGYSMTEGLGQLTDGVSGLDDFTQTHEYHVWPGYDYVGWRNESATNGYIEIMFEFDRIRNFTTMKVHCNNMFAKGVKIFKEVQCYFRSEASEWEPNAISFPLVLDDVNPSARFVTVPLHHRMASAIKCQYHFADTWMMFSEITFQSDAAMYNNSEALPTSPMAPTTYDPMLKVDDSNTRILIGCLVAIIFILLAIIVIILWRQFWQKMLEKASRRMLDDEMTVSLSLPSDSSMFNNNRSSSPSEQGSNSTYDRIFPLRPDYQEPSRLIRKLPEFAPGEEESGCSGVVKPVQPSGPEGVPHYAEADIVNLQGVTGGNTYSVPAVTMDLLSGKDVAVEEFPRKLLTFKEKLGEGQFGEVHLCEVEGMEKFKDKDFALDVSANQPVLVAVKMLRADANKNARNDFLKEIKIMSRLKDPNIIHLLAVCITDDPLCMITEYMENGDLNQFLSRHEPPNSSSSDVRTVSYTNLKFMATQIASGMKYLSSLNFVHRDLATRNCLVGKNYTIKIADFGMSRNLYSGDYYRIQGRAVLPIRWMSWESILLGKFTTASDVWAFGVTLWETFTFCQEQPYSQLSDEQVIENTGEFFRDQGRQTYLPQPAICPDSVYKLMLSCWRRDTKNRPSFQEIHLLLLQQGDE

The target in experiment [10] is Fibroblast growth factor receptor 1 (Homo sapiens, UniProt P11362).
In experiment [11] the target is T2, NUAK family SNF1-like kinase 1 (Homo sapiens, UniProt O60285).
T2 sequence (O60285 whole entry): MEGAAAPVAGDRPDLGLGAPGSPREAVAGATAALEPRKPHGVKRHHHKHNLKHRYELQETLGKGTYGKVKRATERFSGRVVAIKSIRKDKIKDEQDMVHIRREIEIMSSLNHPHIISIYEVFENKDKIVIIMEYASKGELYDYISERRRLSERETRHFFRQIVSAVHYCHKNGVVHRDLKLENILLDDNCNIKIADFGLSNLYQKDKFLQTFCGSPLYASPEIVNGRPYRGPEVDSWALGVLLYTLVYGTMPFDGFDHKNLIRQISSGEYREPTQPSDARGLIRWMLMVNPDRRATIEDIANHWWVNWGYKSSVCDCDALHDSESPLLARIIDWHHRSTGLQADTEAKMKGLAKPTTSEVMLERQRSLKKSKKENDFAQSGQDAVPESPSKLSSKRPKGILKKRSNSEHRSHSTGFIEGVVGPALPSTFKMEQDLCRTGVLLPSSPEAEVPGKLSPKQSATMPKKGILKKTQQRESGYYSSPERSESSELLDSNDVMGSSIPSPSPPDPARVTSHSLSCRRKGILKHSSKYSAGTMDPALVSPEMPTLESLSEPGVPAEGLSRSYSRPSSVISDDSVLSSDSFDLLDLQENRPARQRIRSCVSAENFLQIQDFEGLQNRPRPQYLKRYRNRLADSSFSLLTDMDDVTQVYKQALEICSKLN

Experiment [12] deals with Mitogen-activated protein kinase 14 (Homo sapiens, UniProt Q16539).
The target of experiment [13] is Epidermal growth factor receptor (Homo sapiens, UniProt P00533, G719C).
Experiment [14] concerns the target Epidermal growth factor receptor (Homo sapiens, UniProt P00533, S752-I759DEL).
For experiment [15], the target named is Epidermal growth factor receptor (Homo sapiens, UniProt P00533, L861Q).
Experiment [16] concerns the target Epidermal growth factor receptor (Homo sapiens, UniProt P00533).
In experiment [17] the target is Epidermal growth factor receptor (Homo sapiens, UniProt P00533, G719S).
The target in experiment [18] is Epidermal growth factor receptor (Homo sapiens, UniProt P00533, A750P/L747-E749DEL).
Experiment [19] has as its target Epidermal growth factor receptor (Homo sapiens, UniProt P00533, L747-S752DEL/P753S).
In experiment [20] the target is Epidermal growth factor receptor (Homo sapiens, UniProt P00533, L747-T751DEL).
Experiment [21] deals with Epidermal growth factor receptor (Homo sapiens, UniProt P00533, E746-A750DEL).
Experiment [22] concerns the target Epidermal growth factor receptor (Homo sapiens, UniProt P00533, L858R).

Chain of Phosphorylase b kinase gamma catalytic chain, skeletal muscle/heart isoform (Q16816 whole entry, canonical isoform): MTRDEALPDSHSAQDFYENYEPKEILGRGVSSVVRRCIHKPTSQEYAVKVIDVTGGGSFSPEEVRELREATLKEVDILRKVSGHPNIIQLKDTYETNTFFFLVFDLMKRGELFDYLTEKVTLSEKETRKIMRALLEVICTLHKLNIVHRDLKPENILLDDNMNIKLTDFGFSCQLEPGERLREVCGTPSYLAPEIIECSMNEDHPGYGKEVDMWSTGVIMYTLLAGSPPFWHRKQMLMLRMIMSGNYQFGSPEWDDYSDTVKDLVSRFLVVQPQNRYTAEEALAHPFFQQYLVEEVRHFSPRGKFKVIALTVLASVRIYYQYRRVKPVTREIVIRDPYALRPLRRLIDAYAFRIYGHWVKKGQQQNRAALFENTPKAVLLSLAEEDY
Chain of Interferon-induced, double-stranded RNA-activated protein kinase (P19525 whole entry): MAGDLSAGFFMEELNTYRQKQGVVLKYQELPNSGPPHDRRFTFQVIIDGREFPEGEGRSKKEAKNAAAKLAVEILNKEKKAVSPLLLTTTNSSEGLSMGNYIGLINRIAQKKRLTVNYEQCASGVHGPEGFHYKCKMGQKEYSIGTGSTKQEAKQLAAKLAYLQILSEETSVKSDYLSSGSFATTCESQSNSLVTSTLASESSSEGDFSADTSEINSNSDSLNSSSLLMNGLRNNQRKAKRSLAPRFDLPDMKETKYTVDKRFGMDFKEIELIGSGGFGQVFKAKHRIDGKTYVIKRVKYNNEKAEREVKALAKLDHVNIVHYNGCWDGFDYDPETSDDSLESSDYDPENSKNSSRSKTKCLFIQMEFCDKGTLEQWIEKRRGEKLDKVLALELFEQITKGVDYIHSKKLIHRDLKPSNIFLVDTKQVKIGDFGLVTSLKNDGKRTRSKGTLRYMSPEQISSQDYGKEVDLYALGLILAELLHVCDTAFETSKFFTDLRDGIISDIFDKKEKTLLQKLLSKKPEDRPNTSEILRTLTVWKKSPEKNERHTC
Chain of Serine/threonine-protein kinase MRCK gamma (Q6DT37 whole entry): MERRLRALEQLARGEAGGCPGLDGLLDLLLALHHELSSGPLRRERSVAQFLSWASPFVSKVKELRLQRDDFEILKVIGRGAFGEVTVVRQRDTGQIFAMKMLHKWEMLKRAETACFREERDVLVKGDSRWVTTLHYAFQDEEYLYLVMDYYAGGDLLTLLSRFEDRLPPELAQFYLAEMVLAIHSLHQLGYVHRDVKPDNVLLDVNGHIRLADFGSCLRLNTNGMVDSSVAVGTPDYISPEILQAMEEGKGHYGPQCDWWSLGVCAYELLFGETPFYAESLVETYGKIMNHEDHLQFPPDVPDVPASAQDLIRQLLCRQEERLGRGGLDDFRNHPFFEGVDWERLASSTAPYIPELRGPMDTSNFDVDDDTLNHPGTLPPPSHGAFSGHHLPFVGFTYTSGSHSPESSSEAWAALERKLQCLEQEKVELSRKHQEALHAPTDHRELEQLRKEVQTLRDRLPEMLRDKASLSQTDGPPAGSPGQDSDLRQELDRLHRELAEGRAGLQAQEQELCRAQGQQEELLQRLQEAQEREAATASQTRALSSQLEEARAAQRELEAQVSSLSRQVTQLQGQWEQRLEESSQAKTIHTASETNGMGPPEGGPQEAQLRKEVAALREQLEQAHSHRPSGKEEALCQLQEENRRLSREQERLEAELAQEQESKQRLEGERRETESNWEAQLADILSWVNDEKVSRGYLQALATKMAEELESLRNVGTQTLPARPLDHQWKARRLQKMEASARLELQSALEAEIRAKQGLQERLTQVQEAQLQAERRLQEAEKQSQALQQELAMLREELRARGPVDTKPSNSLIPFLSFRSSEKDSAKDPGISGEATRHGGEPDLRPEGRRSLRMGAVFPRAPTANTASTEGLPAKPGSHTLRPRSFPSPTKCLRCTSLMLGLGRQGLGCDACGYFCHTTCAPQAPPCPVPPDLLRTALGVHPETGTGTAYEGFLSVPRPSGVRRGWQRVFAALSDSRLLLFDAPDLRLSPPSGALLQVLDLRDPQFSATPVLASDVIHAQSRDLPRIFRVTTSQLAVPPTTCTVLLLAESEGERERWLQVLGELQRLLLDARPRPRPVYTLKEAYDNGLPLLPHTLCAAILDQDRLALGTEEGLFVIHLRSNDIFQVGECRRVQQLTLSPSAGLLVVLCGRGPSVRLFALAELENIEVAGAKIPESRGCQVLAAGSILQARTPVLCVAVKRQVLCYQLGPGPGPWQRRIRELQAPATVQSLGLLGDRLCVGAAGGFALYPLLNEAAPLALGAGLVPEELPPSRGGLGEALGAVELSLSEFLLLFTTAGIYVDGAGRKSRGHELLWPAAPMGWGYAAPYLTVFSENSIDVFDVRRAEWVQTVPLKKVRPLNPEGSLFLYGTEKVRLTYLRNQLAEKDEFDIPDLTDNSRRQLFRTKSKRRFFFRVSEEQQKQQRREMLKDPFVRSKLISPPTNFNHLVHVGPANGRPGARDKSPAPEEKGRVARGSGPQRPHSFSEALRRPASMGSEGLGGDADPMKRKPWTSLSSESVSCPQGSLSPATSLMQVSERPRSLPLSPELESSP
Chain of Serine/threonine-protein kinase 33 (Q9BYT3 whole entry, canonical isoform): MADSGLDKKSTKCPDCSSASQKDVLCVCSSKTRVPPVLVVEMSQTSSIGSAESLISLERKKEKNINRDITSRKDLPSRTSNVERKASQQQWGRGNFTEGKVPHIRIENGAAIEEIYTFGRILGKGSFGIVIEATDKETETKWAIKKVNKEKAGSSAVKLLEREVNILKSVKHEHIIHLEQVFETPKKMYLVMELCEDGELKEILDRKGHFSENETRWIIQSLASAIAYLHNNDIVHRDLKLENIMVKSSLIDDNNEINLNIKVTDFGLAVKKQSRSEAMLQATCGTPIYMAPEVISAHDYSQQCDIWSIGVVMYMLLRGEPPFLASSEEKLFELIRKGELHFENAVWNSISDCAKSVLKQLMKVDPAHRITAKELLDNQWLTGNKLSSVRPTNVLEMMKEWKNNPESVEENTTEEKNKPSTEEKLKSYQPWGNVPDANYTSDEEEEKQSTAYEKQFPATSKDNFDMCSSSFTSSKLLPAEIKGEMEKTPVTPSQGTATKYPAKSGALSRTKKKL
Chain of Fibroblast growth factor receptor 1 (P11362 whole entry): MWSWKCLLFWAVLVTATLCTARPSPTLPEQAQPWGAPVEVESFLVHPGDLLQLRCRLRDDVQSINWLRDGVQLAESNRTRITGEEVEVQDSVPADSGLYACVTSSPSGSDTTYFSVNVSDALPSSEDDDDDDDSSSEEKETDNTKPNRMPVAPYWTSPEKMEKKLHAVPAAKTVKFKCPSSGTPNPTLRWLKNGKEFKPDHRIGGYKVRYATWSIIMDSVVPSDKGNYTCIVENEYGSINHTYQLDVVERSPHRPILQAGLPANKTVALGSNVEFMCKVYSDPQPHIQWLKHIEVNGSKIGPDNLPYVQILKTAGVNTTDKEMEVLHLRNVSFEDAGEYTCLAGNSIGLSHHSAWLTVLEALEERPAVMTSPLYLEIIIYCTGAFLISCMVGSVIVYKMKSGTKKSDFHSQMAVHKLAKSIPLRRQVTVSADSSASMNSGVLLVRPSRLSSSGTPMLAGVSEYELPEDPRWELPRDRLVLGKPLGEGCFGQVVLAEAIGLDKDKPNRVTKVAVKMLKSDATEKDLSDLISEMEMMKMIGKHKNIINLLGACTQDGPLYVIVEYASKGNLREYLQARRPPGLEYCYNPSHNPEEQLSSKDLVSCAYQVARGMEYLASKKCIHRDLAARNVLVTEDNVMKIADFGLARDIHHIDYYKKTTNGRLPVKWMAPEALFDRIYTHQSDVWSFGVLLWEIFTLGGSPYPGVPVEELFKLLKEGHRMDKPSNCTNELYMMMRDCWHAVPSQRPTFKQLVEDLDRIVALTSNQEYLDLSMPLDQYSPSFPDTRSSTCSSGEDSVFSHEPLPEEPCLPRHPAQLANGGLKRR
Chain of 5'-AMP-activated protein kinase catalytic subunit alpha-1 (Q13131 whole entry): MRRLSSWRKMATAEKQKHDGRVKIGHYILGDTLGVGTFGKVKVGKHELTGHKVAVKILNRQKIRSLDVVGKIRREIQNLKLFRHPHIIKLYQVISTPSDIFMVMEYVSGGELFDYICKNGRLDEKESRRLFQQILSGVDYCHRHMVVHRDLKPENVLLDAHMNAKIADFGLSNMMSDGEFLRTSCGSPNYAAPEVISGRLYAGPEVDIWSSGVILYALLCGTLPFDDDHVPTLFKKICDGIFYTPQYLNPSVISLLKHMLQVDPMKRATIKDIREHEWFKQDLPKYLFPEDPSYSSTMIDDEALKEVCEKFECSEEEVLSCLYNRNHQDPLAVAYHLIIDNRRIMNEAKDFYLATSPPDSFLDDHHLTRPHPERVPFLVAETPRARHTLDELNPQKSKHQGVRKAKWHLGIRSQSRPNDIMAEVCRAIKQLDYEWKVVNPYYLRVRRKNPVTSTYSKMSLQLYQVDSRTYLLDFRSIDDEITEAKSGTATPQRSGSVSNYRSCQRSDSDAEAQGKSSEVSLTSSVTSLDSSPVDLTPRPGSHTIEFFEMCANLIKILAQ
Chain of Tyrosine-protein kinase CSK (P41240 whole entry): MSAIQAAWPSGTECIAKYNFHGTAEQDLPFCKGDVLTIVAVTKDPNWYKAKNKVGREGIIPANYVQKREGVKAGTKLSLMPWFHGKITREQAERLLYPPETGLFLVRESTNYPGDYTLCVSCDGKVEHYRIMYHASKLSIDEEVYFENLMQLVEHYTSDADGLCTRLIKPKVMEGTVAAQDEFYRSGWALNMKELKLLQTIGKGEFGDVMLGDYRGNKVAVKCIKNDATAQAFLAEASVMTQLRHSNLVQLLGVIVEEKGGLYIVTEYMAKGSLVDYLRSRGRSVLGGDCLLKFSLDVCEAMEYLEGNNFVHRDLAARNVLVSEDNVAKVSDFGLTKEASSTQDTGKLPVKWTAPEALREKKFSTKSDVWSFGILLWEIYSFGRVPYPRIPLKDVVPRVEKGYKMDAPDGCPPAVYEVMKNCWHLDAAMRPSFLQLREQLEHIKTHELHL

Take `Oc1ccc(-c2nc(-c3ccncc3)c(-c3ccc(F)cc3)[nH]2)cc1` [SB-202190]: the Kd in experiment [1] is over 10 µM; in experiment [2], over 10 µM; in [3], over 10 µM; in [4] it was over 10 µM; in experiment [5] it was over 10 µM; in [6], 0.64 µM. The Kd is over 10 µM in experiment [7]; over 10 µM in experiment [8]; 1.6 µM in experiment [9]; over 10 µM in [10]; over 10 µM in experiment [11].

On to `COCC(=O)NC/C=C/c1ccc2ncnc(Nc3ccc(Oc4ccc(C)nc4)c(C)c3)c2c1` [CP-724714], for which the Kd in [1], in experiment [2], in experiment [3], in experiment [4], in [5] and in experiment [6] was over 10 µM throughout. In addition, the Kd in [7], in experiment [9], in [10], in experiment [12] and in experiment [11] was over 10 µM throughout.

With `Nc1nc(Nc2ccc(S(N)(=O)=O)cc2)nn1C(=O)c1c(F)cccc1F` [JNJ-7706621], the Kd in experiment [13], in [14], in [15], in experiment [2], in experiment [3] and in experiment [16] was over 10 µM in each case. Besides, the Kd in experiment [4], in [17], in experiment [18], in experiment [19], in experiment [6] and in experiment [9] was over 10 µM each time. Moreover, the Kd in experiment [20], in [21] and in [22] was over 10 µM each time.

As to `NC(=O)c1ccc(-c2nc(-c3ccc4c(c3)OCO4)c(-c3ccccn3)[nH]2)cc1` [SB-431542], the Kd in [13], in [14], in experiment [1], in [15], in experiment [2] and in [3] was over 10 µM throughout. In addition, the Kd in experiment [16], in experiment [4], in experiment [17], in experiment [18], in experiment [19] and in experiment [6] was over 10 µM throughout. For the same compound, the Kd in experiment [7], in experiment [8], in experiment [9], in experiment [20], in [10] and in experiment [11] was over 10 µM in each case. Further, the Kd in experiment [21] and in [22] was over 10 µM in each case.

Turning to `CCOc1cc2ncc(C#N)c(Nc3ccc(F)c(Cl)c3)c2cc1NC(=O)/C=C/CN(C)C` [PELITINIB], the Kd is 1.9 µM in experiment [1]; over 10 µM in [6]; over 10 µM in [7]; over 10 µM in experiment [9]; over 10 µM in experiment [10]; over 10 µM in experiment [12]. The Kd in experiment [11] was over 10 µM.

The values above are taken from ChEMBL document CHEMBL1150977, “A quantitative analysis of kinase inhibitor selectivity” (Nat Biotechnol, 2008).
